Assay results published in the kinase profiling compilation of Christmann-Franck et al. (2016).

How the values were obtained:
Assay in all cases: KINOMEscan competition binding
Conditions in all cases: compound 10.0 µM
[1] = target: ABL1 (human) (UniProt P00519)
[2] = target: PAK7 (human) (UniProt Q9P286)
[3] = target: MYLK2 (human) (UniProt Q9H1R3)
[4] = target: MAP3K4 (human) (UniProt Q9Y6R4)
[5] = target: STK32B (human) (UniProt Q9NY57)
[6] = target: MAP4K4 (human) (UniProt O95819)
[7] = target: CSNK1A1L (human) (UniProt Q8N752)
[8] = target: PRKD1 (human) (UniProt Q15139)
[9] = target: MARK3 (human) (UniProt P27448)
[10] = target: LYN (human) (UniProt P07948)
[11] = target: STK16 (human) (UniProt O75716)
[12] = target: CSNK1G3 (human) (UniProt Q9Y6M4)
[13] = target: MAPK6 (human) (UniProt Q16659)
[14] = target: FLT3 (human) (UniProt P36888)
[15] = target: MAPK7 (human) (UniProt Q13164)
[16] = target: PKN1 (human) (UniProt Q16512)
[17] = target: NLK (human) (UniProt Q9UBE8)
[18] = target: RPS6KA4 KD2 (human) (UniProt O75676)
[19] = target: FGFR1 (human) (UniProt P11362)
[20] = target: MAP4K1 (human) (UniProt Q92918)
[21] = target: MERTK (human) (UniProt Q12866)
[22] = target: TLK1 (human) (UniProt Q9UKI8)
[23] = target: CSNK2A1 (human) (UniProt P68400)
[24] = target: EPHA5 (human) (UniProt P54756)
[25] = target: PIK3CD (human) (UniProt O00329)
[26] = target: MAP3K3 (human) (UniProt Q99759)
[27] = target: MAP3K6 (human) (UniProt O95382)
[28] = target: ULK1 (human) (UniProt O75385)
[29] = target: MST1R (human) (UniProt Q04912)
[30] = target: RIOK2 (human) (UniProt Q9BVS4)
[31] = target: JAK1 JH1 catalytic (human) (UniProt P23458)
[32] = target: PIK3CB (human) (UniProt P42338)
[33] = target: TYK2 JH2 pseudokinase (human) (UniProt P29597)
[34] = target: PIP4K2C (human) (UniProt Q8TBX8)
[35] = target: BRAF (human) (UniProt P15056)
[36] = target: CSNK1A1 (human) (UniProt P48729)

FGFR1 (human), sequence (P11362 whole entry, looked up): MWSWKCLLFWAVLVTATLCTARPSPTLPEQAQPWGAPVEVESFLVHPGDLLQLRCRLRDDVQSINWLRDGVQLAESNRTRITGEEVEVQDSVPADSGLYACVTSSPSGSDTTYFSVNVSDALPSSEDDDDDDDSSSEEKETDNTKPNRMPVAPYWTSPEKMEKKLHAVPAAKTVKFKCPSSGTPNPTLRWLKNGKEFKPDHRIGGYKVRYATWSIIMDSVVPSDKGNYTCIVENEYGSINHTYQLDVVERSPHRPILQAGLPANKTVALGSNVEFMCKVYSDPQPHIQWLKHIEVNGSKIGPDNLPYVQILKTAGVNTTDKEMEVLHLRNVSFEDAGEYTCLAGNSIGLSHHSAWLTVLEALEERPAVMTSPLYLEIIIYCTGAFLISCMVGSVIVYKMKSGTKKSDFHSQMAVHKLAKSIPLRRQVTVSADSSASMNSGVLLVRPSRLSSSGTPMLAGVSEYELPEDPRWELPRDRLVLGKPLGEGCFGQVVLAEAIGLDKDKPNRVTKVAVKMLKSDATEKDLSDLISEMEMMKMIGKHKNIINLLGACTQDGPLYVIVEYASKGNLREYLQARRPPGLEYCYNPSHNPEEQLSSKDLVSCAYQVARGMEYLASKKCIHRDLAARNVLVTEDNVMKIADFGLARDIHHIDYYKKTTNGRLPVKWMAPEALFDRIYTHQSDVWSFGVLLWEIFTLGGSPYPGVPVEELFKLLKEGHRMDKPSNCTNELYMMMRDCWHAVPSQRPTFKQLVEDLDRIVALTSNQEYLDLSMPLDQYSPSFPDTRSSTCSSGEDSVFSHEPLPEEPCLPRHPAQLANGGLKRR
MERTK (human), sequence (Q12866 whole entry, looked up): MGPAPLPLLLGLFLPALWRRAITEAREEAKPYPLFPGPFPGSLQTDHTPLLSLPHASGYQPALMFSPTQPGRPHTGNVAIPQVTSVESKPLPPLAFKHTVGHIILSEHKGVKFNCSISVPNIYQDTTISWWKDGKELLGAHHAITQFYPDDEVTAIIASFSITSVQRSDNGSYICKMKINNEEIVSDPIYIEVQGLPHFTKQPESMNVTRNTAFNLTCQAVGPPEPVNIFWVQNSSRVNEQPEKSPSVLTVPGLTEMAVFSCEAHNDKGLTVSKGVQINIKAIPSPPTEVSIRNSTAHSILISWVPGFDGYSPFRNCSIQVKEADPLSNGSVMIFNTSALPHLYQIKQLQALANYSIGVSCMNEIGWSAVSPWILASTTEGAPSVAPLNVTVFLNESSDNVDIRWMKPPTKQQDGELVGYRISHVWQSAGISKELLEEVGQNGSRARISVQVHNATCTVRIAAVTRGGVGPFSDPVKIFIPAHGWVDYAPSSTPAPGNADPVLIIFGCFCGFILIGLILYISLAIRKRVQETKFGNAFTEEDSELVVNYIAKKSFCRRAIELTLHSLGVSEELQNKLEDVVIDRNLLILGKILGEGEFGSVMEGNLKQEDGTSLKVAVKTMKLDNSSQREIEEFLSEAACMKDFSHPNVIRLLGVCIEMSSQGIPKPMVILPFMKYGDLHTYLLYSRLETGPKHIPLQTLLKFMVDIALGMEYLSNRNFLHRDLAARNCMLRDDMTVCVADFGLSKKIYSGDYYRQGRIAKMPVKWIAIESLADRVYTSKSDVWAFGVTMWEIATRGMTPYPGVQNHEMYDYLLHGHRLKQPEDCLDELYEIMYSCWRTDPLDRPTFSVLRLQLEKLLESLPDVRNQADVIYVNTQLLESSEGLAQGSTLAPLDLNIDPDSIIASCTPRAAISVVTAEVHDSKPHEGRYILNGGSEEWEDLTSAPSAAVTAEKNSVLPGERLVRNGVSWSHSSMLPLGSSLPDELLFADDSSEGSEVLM
MAP4K1 (human), sequence (Q92918 whole entry, looked up): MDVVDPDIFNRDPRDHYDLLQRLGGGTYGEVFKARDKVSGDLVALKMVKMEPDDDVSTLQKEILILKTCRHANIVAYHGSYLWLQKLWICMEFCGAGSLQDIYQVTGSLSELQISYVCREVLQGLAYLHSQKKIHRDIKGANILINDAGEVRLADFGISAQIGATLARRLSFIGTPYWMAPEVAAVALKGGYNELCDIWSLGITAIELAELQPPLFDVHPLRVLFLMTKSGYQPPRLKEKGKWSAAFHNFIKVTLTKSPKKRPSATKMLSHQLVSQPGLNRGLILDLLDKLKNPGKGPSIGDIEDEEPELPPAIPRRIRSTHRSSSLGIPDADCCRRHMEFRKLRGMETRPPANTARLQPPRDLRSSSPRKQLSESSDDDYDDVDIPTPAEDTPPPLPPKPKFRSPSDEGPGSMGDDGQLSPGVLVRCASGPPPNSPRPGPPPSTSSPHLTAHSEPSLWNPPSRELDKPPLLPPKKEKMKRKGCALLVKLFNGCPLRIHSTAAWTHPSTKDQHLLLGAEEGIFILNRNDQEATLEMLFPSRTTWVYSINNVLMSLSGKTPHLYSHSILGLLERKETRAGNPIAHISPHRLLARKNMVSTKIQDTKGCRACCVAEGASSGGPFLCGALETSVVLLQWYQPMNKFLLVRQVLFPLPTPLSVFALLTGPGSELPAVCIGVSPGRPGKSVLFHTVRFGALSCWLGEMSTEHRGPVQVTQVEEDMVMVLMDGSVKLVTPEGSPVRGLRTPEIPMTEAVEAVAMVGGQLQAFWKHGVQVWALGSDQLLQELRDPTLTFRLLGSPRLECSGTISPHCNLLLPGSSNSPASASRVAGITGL
MYLK2 (human), sequence (Q9H1R3 whole entry, looked up): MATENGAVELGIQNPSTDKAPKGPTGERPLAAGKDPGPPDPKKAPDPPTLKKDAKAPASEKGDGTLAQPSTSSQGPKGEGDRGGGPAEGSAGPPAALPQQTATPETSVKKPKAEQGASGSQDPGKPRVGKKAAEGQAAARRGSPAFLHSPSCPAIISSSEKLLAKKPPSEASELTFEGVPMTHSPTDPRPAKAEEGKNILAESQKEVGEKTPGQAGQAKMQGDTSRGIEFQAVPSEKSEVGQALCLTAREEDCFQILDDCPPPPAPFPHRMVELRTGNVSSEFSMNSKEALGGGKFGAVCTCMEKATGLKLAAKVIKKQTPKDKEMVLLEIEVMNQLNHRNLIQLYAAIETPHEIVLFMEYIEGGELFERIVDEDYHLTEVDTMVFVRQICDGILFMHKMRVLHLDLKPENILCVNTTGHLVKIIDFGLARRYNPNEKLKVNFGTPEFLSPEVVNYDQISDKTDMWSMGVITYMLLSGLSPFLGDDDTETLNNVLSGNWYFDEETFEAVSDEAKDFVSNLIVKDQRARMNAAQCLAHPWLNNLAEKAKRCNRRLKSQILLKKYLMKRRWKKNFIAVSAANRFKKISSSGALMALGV
LYN (human), sequence (P07948 whole entry, looked up): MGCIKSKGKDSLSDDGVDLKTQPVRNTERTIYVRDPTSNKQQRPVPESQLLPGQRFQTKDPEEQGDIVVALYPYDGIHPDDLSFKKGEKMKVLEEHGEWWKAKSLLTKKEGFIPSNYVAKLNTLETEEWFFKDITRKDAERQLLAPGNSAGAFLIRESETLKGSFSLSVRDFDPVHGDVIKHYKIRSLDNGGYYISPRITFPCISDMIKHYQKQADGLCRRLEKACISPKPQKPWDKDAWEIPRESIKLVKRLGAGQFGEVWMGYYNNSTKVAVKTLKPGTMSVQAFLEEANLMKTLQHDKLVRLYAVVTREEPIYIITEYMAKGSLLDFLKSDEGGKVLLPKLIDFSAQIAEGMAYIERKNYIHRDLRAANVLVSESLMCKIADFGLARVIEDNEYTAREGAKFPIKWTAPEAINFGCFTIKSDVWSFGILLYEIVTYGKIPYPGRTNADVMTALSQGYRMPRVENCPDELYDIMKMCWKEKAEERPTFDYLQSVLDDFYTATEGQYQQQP
NLK (human), sequence (Q9UBE8 whole entry, looked up): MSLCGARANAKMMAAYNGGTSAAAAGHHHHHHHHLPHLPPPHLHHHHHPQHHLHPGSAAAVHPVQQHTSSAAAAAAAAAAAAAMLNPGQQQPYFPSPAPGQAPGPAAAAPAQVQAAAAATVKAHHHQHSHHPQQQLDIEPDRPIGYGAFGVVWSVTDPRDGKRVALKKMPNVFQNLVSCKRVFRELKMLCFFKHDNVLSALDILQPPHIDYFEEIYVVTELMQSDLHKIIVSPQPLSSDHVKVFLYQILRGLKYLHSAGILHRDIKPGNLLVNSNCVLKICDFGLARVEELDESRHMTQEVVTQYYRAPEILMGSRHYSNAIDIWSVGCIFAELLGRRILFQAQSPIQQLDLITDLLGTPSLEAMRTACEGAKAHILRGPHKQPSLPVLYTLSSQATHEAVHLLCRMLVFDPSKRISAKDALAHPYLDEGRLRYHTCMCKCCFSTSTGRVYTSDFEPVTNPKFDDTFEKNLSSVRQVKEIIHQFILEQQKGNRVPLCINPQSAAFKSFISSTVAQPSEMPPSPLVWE
PAK7 (human), sequence (Q9P286 whole entry, looked up): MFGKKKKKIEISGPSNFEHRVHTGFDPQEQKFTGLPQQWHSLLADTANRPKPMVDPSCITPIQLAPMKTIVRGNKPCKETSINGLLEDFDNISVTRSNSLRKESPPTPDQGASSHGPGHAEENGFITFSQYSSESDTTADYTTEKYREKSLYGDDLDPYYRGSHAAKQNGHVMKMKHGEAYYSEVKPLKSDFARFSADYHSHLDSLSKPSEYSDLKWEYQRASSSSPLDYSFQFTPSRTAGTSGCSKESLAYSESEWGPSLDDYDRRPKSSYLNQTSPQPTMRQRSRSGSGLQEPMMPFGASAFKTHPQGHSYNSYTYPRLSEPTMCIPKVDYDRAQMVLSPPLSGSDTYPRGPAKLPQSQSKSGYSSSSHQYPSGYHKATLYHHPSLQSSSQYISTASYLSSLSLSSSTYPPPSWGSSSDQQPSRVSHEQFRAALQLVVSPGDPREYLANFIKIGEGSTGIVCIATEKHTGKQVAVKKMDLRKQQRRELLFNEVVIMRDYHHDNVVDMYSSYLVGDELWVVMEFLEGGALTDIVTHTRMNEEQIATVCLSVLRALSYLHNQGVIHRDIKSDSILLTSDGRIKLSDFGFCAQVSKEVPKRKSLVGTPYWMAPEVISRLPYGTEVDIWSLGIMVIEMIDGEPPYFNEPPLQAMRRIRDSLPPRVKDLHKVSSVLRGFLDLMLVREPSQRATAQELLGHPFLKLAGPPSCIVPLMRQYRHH

Row | Structure (SMILES) | kinase still bound, per cent of control [2] [%] | kinase still bound, per cent of control [3] [%] | kinase still bound, per cent of control [4] [%] | kinase still bound, per cent of control [5] [%] | kinase still bound, per cent of control [6] [%] | kinase still bound, per cent of control [7] [%] | kinase still bound, per cent of control [8] [%] | kinase still bound, per cent of control [9] [%] | kinase still bound, per cent of control [10] [%] | kinase still bound, per cent of control [11] [%] | kinase still bound, per cent of control [12] [%] | kinase still bound, per cent of control [13] [%] | kinase still bound, per cent of control [14] [%] | kinase still bound, per cent of control [15] [%] | kinase still bound, per cent of control [16] [%] | kinase still bound, per cent of control [17] [%] | kinase still bound, per cent of control [18] [%] | kinase still bound, per cent of control [19] [%] | kinase still bound, per cent of control [20] [%] | kinase still bound, per cent of control [21] [%] | other results
1 | COc1ccc(N(C(=O)Oc2cc(C(=O)Nc3cccc(C(F)(F)F)c3)ccc2C)c2ccnc(Nc3ccc(N4CCN(C)CC4)cc3)n2)c(OC)c1 | 100 | 100 | 100 | 100 | 7 | 100 | 100 | 100 | 0.95 | 100 | 100 | 100 | 100 | 15 | 100 | 30 | 100 | 0.6 | 4.6 | 1.2 | kinase still bound, per cent of control [1]: 2%; kinase still bound, per cent of control [22]: 100%; kinase still bound, per cent of control [23]: 100%; kinase still bound, per cent of control [24]: 0.85%
2 | Cc1cn(-c2cc(C(=O)Nc3ccc(C)c(NC(=O)c4ccno4)c3)cc(C(F)(F)F)c2)cn1 | 100 | 100 | 100 | 100 | 100 | 100 | 100 | 100 | 4.8 | 100 | 100 | 100 | 100 | 100 | 100 | 100 | 100 | 100 | 100 | 100 | kinase still bound, per cent of control [1]: 8%; kinase still bound, per cent of control [25]: 100%; kinase still bound, per cent of control [26]: 100%; kinase still bound, per cent of control [27]: 100%; kinase still bound, per cent of control [28]: 100%; kinase still bound, per cent of control [29]: 100%; kinase still bound, per cent of control [30]: 100%; kinase still bound, per cent of control [31]: 100%; kinase still bound, per cent of control [22]: 100%; kinase still bound, per cent of control [32]: 100%; kinase still bound, per cent of control [33]: 100%; kinase still bound, per cent of control [23]: 100%; kinase still bound, per cent of control [24]: 17%
3 | N#C/C(=C1/Nc2ccccc2S1)c1ccnc(NCCc2cccnc2)n1 | 76 | 100 | 100 | 100 | 93 | 67 | 100 | 100 | 100 | 13 | 100 | 26 | 100 | 100 | 95 | 100 | 57 | 98 | 100 | 100 | kinase still bound, per cent of control [25]: 78%; kinase still bound, per cent of control [26]: 74%; kinase still bound, per cent of control [27]: 100%; kinase still bound, per cent of control [34]: 3.7%; kinase still bound, per cent of control [28]: 36%; kinase still bound, per cent of control [29]: 100%; kinase still bound, per cent of control [30]: 2.4%; kinase still bound, per cent of control [31]: 100%; kinase still bound, per cent of control [35]: 14%; kinase still bound, per cent of control [36]: 9.8%; kinase still bound, per cent of control [22]: 57%; kinase still bound, per cent of control [32]: 55%; kinase still bound, per cent of control [33]: 1.4%; kinase still bound, per cent of control [23]: 0.4%; kinase still bound, per cent of control [24]: 99%
